*1 amine or outer side, *2 acyl side, *3 side chain or, on linkers, in order; H or OH if unused. Where a SMILES comes first, the peptide text is derived from it. Side-chain parts run from the residue outwards. [ ]: non-standard residue; d: D form. The star is where a group is joined. C20 diacid = O=C(O)CCCCCCCCCCCCCCCCCCC(=O)*; γGlu = O=C(O)[C@H](CCC(=O)[*:2])N[*:1]; AEEA = NCCOCCOCC(=O)O; Aib = CC(C)(N)C(=O)O

One experiment deals with T1, human GLP-1 R (Homo sapiens, UniProt P43220).
T1 construct: expressed in transfected cells
Put plainly: Human GLP-1 receptor (GLP-1 R) activity assay, cAMP induction (AlphaScreen) in HEK293 cells. Format: cell-based. The note with it: Table 3; most comprehensive data; read-out: hGLP-1-R cAMP EC50 average value. The method, boiled down: (§1)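 Stable HEK293 clones expressing human GIP R or GLP-1 R, seeded 1 day before; cells washed in Tyrode's buffer (10 mM HEPES, pH 7.4), stimulated, then lysed. cAMP measured by AlphaScreen bead competition (1 h, room temperature, dark). EC50 = concentration giving half-maximal cAMP elevation, from curves of absolute cAMP (nM) vs log concentration.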
On the technique in general: Bead proximity is the source of the signal in Alpha formats.

The next experiment concerns the target T2, human GIP R (Homo sapiens, UniProt P48546).
T2 construct: expressed in transfected cells
T2 sequence (P48546 22-466): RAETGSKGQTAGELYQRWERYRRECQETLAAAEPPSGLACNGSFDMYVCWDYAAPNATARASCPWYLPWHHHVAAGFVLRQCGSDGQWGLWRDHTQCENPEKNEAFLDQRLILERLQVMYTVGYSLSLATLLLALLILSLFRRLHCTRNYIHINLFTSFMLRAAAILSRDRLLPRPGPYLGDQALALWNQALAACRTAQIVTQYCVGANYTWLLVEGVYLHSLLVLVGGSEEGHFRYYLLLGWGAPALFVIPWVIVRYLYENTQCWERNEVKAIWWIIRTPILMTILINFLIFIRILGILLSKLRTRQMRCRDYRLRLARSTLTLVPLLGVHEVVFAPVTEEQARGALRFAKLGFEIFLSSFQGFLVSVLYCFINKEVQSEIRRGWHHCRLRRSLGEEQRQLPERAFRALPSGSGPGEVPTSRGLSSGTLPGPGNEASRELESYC
Put plainly: Human GIP receptor (GIP R) activity assay, cAMP induction (AlphaScreen) in HEK293 cells. The note with it: Table 3; most comprehensive data; read-out: hGIP-R cAMP EC50 average value. Format: cell-based. The method, boiled down:
as §1

T1 sequence (P43220 24-463): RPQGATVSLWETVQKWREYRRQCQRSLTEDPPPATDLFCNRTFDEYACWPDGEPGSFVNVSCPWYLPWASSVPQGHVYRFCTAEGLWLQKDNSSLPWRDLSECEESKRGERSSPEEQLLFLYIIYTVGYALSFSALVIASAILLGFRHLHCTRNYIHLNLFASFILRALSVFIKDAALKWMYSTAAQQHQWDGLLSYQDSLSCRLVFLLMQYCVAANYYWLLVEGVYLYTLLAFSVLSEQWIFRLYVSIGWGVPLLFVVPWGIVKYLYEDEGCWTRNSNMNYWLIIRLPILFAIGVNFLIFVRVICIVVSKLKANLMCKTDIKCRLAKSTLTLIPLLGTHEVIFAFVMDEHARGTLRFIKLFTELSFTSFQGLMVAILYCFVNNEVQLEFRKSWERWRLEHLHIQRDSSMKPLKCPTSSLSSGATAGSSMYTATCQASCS

On to `CC[C@H](C)[C@H](NC(=O)[C@H](CO)NC(=O)[C@H](Cc1ccc(O)cc1)NC(=O)[C@H](CC(=O)O)NC(=O)[C@H](CO)NC(=O)[C@@H](NC(=O)[C@H](Cc1ccccc1)NC(=O)[C@@H](NC(=O)CNC(=O)[C@H](CCC(=O)O)NC(=O)C(C)(C)NC(=O)[C@@H](N)Cc1ccc(O)cc1)[C@@H](C)O)[C@@H](C)O)C(=O)N[C@@H](Cc1ccc(O)cc1)C(=O)N[C@@H](CC(C)C)C(=O)N[C@@H](CC(=O)O)C(=O)N[C@@H](CCCCN)C(=O)N[C@@H](CCCCNC(=O)COCCOCCNC(=O)COCCOCCNC(=O)CC[C@H](NC(=O)CCCCCCCCCCCCCCCCCCC(=O)O)C(=O)O)C(=O)N[C@@H](C)C(=O)N[C@@H](CCC(N)=O)C(=O)N[C@@H](CCCNC(=N)N)C(=O)N[C@@H](C)C(=O)N[C@@H](Cc1ccccc1)C(=O)N[C@H](C(=O)N[C@@H](CCC(=O)O)C(=O)N[C@@H](Cc1c[nH]c2ccccc12)C(=O)N[C@@H](CC(C)C)C(=O)N[C@@H](CC(C)C)C(=O)N[C@@H](C)C(=O)N[C@@H](CCC(=O)O)C(=O)NCC(=O)N1CCC[C@H]1C(=O)N[C@@H](CO)C(=O)N[C@@H](CO)C(=O)NCC(=O)N[C@@H](C)C(=O)N1CCC[C@H]1C(=O)N1CCC[C@H]1C(=O)N1CCC[C@H]1C(=O)N[C@@H](CO)C(N)=O)C(C)C` [Compound 54] (H-Y[Aib]EGTFTSDYSIYLDKK([AEEA-AEEA-γGlu-C20 diacid])AQRAFVEWLLAEGPSSGAPPPS-NH2), for which the EC50 – broadly, the midpoint of the concentration-response curve – is 12 pM on human GLP-1 R and 16 pM on human GIP R.
The like results for `CC[C@H](C)[C@H](NC(=O)[C@H](CO)NC(=O)[C@H](Cc1ccc(O)cc1)NC(=O)[C@H](CC(=O)O)NC(=O)[C@H](CO)NC(=O)[C@@H](NC(=O)[C@H](Cc1ccccc1)NC(=O)[C@@H](NC(=O)CNC(=O)[C@H](CCC(=O)O)NC(=O)C(C)(C)NC(=O)[C@@H](N)Cc1ccc(O)cc1)[C@@H](C)O)[C@@H](C)O)C(=O)N[C@@H](C)C(=O)N[C@@H](CC(C)C)C(=O)N[C@@H](CC(=O)O)C(=O)N[C@@H](CCCCN)C(=O)N[C@@H](CCCCNC(=O)COCCOCCNC(=O)COCCOCCNC(=O)CC[C@H](NC(=O)CCCCCCCCCCCCCCCCCCC(=O)O)C(=O)O)C(=O)N[C@@H](C)C(=O)N[C@@H](CCC(N)=O)C(=O)N[C@@H](CCCNC(=N)N)C(=O)N[C@@H](C)C(=O)N[C@@H](Cc1ccccc1)C(=O)N[C@H](C(=O)N[C@@H](CCC(=O)O)C(=O)N[C@@H](Cc1c[nH]c2ccccc12)C(=O)N[C@@H](CC(C)C)C(=O)N[C@@H](CC(C)C)C(=O)N[C@@H](C)C(=O)N[C@@H](CCC(=O)O)C(=O)NCC(=O)N1CCC[C@H]1C(=O)N[C@@H](CO)C(=O)N[C@@H](CO)C(=O)NCC(=O)N[C@@H](C)C(=O)N1CCC[C@H]1C(=O)N1CCC[C@H]1C(=O)N1CCC[C@H]1C(=O)N[C@@H](CO)C(N)=O)C(C)C` [Compound 55] (H-Y[Aib]EGTFTSDYSIALDKK([AEEA-AEEA-γGlu-C20 diacid])AQRAFVEWLLAEGPSSGAPPPS-NH2) were, in that order, 13 pM and 16 pM.

The values are drawn from patent US10093713B2, “GIP-GLP-1 dual agonist compounds and methods” (priority 2013, dated 2018).
